Source: patent US8822517B2, “Arylosulfonamides for the treatment of CNS diseases” (Adamed SP. Z O.O., priority 2010, dated 2014)

Tests used:
[1] = target: T1, serotonine transporter (SERT) receptor (Homo sapiens, UniProt P31645); assay: Binding assay SERT (h), [3H]imipramine, CHO cells; conditions: read-out: SERT [%]
T1 construct: expressed in transfected cells; host or cells: CHO cells
Outline: (§1)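 Total binding and binding under an excess of unlabelled competitor were both measured, the difference giving specific binding. Counts came from scintillation detection, and compound concentration was 1×10^−6 M.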

[2] = target: serotoninergic 5-HT2A receptor (Homo sapiens, UniProt P28223); assay: Binding assay 5-HT2A (h), [3H]ketanserin, HEK-293 cells; set-up: expressed in transfected cells; host or cells: HEK-293 cells; conditions: read-out: 5-HT2A
Chain of serotoninergic 5-HT2A receptor (P28223 whole entry): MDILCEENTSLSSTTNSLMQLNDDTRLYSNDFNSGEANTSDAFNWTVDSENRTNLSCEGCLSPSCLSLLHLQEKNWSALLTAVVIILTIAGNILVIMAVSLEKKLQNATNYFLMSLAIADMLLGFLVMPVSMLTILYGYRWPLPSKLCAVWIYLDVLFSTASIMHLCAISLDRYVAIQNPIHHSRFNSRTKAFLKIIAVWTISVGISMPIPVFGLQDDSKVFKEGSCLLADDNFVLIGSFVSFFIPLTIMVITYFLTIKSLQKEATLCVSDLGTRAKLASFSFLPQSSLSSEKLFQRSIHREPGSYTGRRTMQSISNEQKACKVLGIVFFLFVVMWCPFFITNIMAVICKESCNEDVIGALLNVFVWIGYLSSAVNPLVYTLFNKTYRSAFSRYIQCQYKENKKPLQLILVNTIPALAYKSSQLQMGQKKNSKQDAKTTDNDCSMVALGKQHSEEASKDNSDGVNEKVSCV
Outline: as §1

[3] = target: serotoninergic 5-HT6 receptor (Homo sapiens, UniProt P50406); assay: Binding assay 5-HT6 (h), [3H]LSD, CHO cells; set-up: expressed in transfected cells; host or cells: CHO cells; conditions: read-out: 5-HT6
Chain of serotoninergic 5-HT6 receptor (P50406 whole entry): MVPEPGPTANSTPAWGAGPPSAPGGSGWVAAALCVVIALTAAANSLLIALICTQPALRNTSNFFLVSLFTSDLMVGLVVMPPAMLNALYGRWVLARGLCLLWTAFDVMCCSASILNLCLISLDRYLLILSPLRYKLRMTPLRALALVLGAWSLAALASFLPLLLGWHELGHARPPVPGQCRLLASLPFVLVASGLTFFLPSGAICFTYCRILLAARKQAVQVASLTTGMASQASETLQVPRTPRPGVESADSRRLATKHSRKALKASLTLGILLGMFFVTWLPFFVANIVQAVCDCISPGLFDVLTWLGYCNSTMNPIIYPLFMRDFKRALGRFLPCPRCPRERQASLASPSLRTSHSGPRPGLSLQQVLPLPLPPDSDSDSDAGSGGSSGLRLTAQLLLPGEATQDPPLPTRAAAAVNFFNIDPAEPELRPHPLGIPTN
Outline: as §1

dopaminergic D2 receptor = dopaminergic D2 receptor (Homo sapiens, UniProt P14416); assay: Binding assay D2S (h), [3H]methyl-spiperone, HEK-293 cells; set-up: expressed in transfected cells; host or cells: HEK-293 cells; conditions: read-out: D2 [%]
Chain of dopaminergic D2 receptor (P14416 1-414 isoform P14416-2): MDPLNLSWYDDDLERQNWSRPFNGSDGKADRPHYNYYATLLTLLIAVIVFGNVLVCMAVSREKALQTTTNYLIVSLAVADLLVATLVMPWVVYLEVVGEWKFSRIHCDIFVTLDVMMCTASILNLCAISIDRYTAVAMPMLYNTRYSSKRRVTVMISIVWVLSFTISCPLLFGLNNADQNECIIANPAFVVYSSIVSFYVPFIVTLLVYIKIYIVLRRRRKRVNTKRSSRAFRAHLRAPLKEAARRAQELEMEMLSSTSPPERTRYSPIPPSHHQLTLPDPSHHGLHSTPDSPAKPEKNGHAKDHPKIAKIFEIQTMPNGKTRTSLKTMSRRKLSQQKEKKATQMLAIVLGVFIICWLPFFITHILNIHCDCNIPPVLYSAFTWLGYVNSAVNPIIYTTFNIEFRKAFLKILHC
Outline: as §1

[4] = target: T2, serotoninergic 5-HT1A receptor (Homo sapiens, UniProt P08908); assay: Binding assay 5-HT1A (h), [3H]8-OH-DPAT, HEK-293 cells; set-up: expressed in transfected cells; host or cells: HEK-293 cells; conditions: read-out: 5-HT1A
T2 sequence (P08908 1-422): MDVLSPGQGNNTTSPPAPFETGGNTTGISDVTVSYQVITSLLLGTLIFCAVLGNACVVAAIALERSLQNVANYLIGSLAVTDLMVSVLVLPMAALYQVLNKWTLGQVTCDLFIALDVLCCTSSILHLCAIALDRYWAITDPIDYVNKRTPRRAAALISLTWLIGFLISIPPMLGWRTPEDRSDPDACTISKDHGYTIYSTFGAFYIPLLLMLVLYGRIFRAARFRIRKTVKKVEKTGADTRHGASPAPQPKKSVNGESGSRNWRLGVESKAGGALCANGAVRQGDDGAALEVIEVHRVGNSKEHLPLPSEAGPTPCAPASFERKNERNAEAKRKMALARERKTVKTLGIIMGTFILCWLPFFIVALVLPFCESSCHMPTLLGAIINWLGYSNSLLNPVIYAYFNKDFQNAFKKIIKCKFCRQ
Outline: as §1

dopaminergic D3 receptor = dopaminergic D3 receptor (Homo sapiens, UniProt P35462); assay: Binding assay D3 (h), [3H]methyl-spiperone, CHO cells; set-up: expressed in transfected cells; host or cells: CHO cells; conditions: read-out: D3 [%]
Chain of dopaminergic D3 receptor (P35462 whole entry): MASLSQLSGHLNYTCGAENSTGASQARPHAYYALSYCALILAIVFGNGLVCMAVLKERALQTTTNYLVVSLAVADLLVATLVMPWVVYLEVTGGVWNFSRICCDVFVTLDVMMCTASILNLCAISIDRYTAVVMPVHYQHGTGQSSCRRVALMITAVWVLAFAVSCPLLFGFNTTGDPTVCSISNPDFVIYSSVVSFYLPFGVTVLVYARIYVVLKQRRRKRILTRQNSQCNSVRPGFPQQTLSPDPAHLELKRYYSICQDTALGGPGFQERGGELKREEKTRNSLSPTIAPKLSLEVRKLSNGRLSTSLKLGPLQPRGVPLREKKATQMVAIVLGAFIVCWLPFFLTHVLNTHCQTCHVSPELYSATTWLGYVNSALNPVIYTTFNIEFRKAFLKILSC
Outline: as §1

[5] = target: serotoninergic 5-HT7 receptor (Homo sapiens, UniProt P34969); assay: Binding assay 5-HT7 (h), [3H]LSD, CHO cells; set-up: expressed in transfected cells; host or cells: CHO cells; conditions: read-out: 5-HT7
Chain of serotoninergic 5-HT7 receptor (P34969 whole entry): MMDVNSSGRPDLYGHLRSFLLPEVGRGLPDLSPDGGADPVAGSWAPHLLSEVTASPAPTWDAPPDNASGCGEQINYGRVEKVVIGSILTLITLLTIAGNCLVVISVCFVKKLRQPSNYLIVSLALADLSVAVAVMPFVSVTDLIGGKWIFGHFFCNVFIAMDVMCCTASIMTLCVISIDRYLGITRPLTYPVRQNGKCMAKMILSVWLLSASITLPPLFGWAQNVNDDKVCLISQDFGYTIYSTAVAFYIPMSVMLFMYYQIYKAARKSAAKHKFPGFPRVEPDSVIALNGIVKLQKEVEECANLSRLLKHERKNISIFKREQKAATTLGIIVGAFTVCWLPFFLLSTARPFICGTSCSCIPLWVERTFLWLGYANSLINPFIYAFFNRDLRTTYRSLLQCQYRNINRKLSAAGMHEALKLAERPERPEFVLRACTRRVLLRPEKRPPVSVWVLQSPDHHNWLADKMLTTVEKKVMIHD
Outline: as §1

adrenergic α1 receptor = assay: Binding assay α1 (non-selective), [3H]prazosin, rat cerebral cortex; conditions: percent inhibition of control specific binding; compounds tested at 1×10^−6 M
Procedure: The specific ligand binding to the receptors is defined as the difference between the total binding and the nonspecific binding determined in the presence of an excess of so unlabelled ligand.
The specific Ligand binding to the receptor is defined as the difference between total and non-specific binding determined in the presence of an excess of unlabelled ligand. The compounds were tested at a concentration of 1×10^−6 M, and scintillation counting was the method of detection of ligand binding.

T1 sequence (P31645 whole entry): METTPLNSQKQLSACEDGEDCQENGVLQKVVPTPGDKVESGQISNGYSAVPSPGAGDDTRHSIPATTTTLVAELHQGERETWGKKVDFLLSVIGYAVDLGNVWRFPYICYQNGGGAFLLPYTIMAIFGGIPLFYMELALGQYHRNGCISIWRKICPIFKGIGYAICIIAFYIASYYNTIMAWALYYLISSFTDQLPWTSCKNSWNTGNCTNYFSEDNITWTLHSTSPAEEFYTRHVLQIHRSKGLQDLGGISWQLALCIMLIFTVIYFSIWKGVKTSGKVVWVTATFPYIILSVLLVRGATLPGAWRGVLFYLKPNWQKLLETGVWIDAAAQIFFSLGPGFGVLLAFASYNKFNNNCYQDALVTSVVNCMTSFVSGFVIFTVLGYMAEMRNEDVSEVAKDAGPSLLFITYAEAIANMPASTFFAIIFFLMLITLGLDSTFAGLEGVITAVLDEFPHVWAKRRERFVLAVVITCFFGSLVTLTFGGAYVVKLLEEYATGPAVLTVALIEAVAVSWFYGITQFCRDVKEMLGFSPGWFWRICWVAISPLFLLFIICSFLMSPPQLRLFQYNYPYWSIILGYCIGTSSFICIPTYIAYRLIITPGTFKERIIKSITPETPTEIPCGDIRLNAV

SMILES | inhibition at 1 µM [1] | inhibition at 1 µM [2] | inhibition at 1 µM [3] | inhibition at 1 µM (dopaminergic D2 receptor) | inhibition at 1 µM [4] | inhibition at 1 µM (dopaminergic D3 receptor) | inhibition at 1 µM [5] | α1 [%] (adrenergic α1 receptor)
O=S(=O)(NCCCCN1CCN(c2nsc3ccccc23)CC1)c1ccc(Cl)s1 [Compound 195, N-[4-[4-(1,2-Benzothiazol-3-yl)piperazin-1-yl]butyl]-5-chloro-thiophene-2-sulphonamide] | -3% | 91% | 60% | 99% | 89% | 89% | 98% | 96%
O=C1COc2c(cccc2N2CCN(CCCCNS(=O)(=O)c3cccc(Cl)c3)CC2)N1 [Compound 209, 3-Chloro-N-[4-[4-(3-oxo-4H-1,4-benzoxazin-8-yl)piperazin-1-yl]butyl]benzenesulphonamide] | -1% | 29% | 70% | 82% | 92% | 103% | 85% | 90%
O=C1COc2c(cccc2N2CCN(CCCCNS(=O)(=O)c3cccc(F)c3)CC2)N1 [Compound 211, 3-Fluoro-N-[4-[4-(3-oxo-4H-1,4-benzoxazin-8-yl)piperazin-1-yl]butyl]benzenesulphonamide] | 33% | 32% | 32% | 81% | 86% | 102% | 81% | 80%
O=S(=O)(NCCCCN1CCN(c2nsc3ccccc23)CC1)c1ccc(F)cc1 [Compound 225, N-[4-[4-(1,2-Benzothiazol-3-yl)piperazin-1-yl]butyl]-4-fluorobenzenesulphonamide] | -4% | 84% | 74% | 77% | 87% | 76% | 92% | 94%
O=S(=O)(NCCCCN1CCN(c2nsc3ccccc23)CC1)c1ccc(F)c(F)c1 [Compound 226, N-[4-[4-(1,2-Benzothiazol-3-yl)piperazin-1-yl]butyl]-3,4-difluorobenzenesulphonamide] | 4% | 100% | 78% | 87% | 90% | 90% | 92% | 94%
O=S(=O)(NCCCCN1CCN(c2nsc3ccccc23)CC1)c1ccc(Cl)cc1 [Compound 227, N-[4-[4-(1,2-Benzothiazol-3-yl)piperazin-1-yl]butyl]-4-chlorobenzenesulphonamide] | 2% | 90% | 76% | 104% | 89% | 90% | 94% | 92%
O=S(=O)(NCCCCN1CCN(c2nsc3ccccc23)CC1)c1ccc(Cl)c(Cl)c1 [Compound 228, N-[4-[4-(1,2-Benzothiazol-3-yl)piperazin-1-yl]butyl]-3,4-dichlorobenzenesulphonamide] | 16% | 91% | 87% | 103% | 81% | 92% | 98% | 92%
O=S(=O)(NCCCCN1CCN(c2nsc3ccccc23)CC1)c1ccc(Br)cc1 [Compound 229, N-[4-[4-(1,2-Benzothiazol-3-yl)piperazin-1-yl]butyl]-4-bromobenzenesulphonamide] | 9% | 80% | 75% | 101% | 92% | 95% | 89% | 96%
O=S(=O)(NCCCCN1CCN(c2nsc3ccccc23)CC1)c1cccc(Br)c1 [Compound 230, N-[4-[4-(1,2-Benzothiazol-3-yl)piperazin-1-yl]butyl]-3-bromobenzenesulphonamide] | 13% | 87% | 85% | 105% | 85% | 87% | 101% | 98%
COc1cccc(S(=O)(=O)NCCCCN2CCN(c3nsc4ccccc34)CC2)c1 [Compound 232, N-[4-[4-(1,2-Benzothiazol-3-yl)piperazin-1-yl]butyl]-3-methoxybenzenesulphonamide] | 13% | 100% | 76% | 92% | 89% | 89% | 89% | 94%
CC(C)(C)c1ccc(S(=O)(=O)NCCCCN2CCN(c3nsc4ccccc34)CC2)cc1 [Compound 233, N-[4-[4-(1,2-Benzothiazol-3-yl)piperazin-1-yl]butyl]-4-tert-butyl-benzenesulphonamide] | 5% | 100% | 76% | 83% | 53% | 76% | 93% | 94%
O=S(=O)(NCCCCN1CCN(c2nsc3ccccc23)CC1)c1ccc(C(F)(F)F)cc1 [Compound 234, N-[4-[4-(1,2-Benzothiazol-3-yl)piperazin-1-yl]butyl]-4-(trifluoromethyl)benzenesulphonamide] | 32% | 92% | 62% | 85% | 95% | 91% | 97% | 91%
O=S(=O)(NCCCCN1CCN(c2nsc3ccccc23)CC1)c1cccc(C(F)(F)F)c1 [Compound 235, N-[4-[4-(1,2-Benzothiazol-3-yl)piperazin-1-yl]butyl]-3-(trifluoromethyl)benzenesulphonamide] | 8% | 80% | 82% | 103% | 86% | 87% | 93% | 95%
O=S(=O)(NCCCCN1CCN(c2nsc3ccccc23)CC1)c1ccc(OC(F)(F)F)cc1 [Compound 236, N-[4-[4-(1,2-Benzothiazol-3-yl)piperazin-1-yl]butyl]-4-(trifluoromethoxy)benzenesulphonamide] | -15% | 89% | 67% | 99% | 76% | 85% | 91% | 92%
O=S(=O)(NCCCCN1CCN(c2nsc3ccccc23)CC1)c1ccc(-c2ccccc2)cc1 [Compound 237, N-[4-[4-(1,2-Benzothiazol-3-yl)piperazin-1-yl]butyl]-4-phenylbenzenesulphonamide] | -7% | 24% | 89% | 62% | 51% | 85% | 64% | 87%
O=S(=O)(NCCCCN1CCN(c2nsc3ccccc23)CC1)c1cccs1 [Compound 238, N-[4-[4-(1,2-Benzothiazol-3-yl)piperazin-1-yl]butyl]thiophene-2-sulphonamide] | 13% | 95% | 74% | 87% | 90% | 85% | 88% | 103%
O=S(=O)(NCCCCN1CCN(c2nsc3ccccc23)CC1)c1ccc2c(c1)CCO2 [Compound 242, N-[4-[4-(1,2-Benzothiazol-3-yl)piperazin-1-yl]butyl]-2,3-dihydrobenzofuran-5-sulphonamide] | 12% | 94% | 73% | 105% | 92% | 89% | 101% | 98%
